According to PubChem BioAssay AID1918941 (Molecular Pharmacology Branch, DTP, NCI, 2023):

Tested on: SW 1271 complex spheroids, viability
Assay: Anticancer human tumor SW 1271 cell line growth inhibition [LSD1];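 also: spheroids exposed to agents for 7 days before luminescence read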;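 as to viability, T/C: 100% = DMSO vehicle control viability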
Details: for IC50: curve of first compound; for viability, T/C: stronger effect = lower value
Outline: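 Drug combinations with the LSD1 inhibitor iadademstat tested on tumor cells co-cultured as spheroids with endothelial cells and mesenchymal stem cells. Concentrations descended in half-log increments from clinical Cmax or 10 microM.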

[1] = second compound 0.1 µM, first compound 0.00949 µM
[2] = second compound 0.1 µM, first compound 0.03 µM
[3] = second compound 0.1 µM, first compound 0.0949 µM
[4] = second compound 0.1 µM, first compound 0.3 µM
[5] = second compound 0.1 µM, first compound 0.949 µM
[6] = second compound 0.1 µM, first compound 3 µM
[7] = second compound 0.316 µM, first compound 0.00949 µM
[8] = second compound 0.316 µM, first compound 0.03 µM
[9] = second compound 0.316 µM, first compound 0.0949 µM
[10] = second compound 0.316 µM, first compound 0.3 µM
[11] = second compound 0.316 µM, first compound 0.949 µM
[12] = second compound 0.316 µM, first compound 3 µM
[13] = second compound 1 µM, first compound 0.00949 µM
[14] = second compound 1 µM, first compound 0.03 µM
[15] = second compound 1 µM, first compound 0.0949 µM
[16] = second compound 1 µM, first compound 0.3 µM
[17] = second compound 1 µM, first compound 0.949 µM
[18] = second compound 1 µM, first compound 3 µM
[19] = second compound 3.16 µM, first compound 0.00949 µM
[20] = second compound 3.16 µM, first compound 0.03 µM
[21] = second compound 3.16 µM, first compound 0.0949 µM
[22] = second compound 3.16 µM, first compound 0.3 µM
[23] = second compound 3.16 µM, first compound 0.949 µM
[24] = second compound 3.16 µM, first compound 3 µM
[25] = second compound 10 µM, first compound 0.00949 µM
[26] = second compound 10 µM, first compound 0.03 µM
[27] = second compound 10 µM, first compound 0.0949 µM
[28] = second compound 10 µM, first compound 0.3 µM
[29] = second compound 10 µM, first compound 0.949 µM
[30] = second compound 10 µM, first compound 3 µM

Compound | IC50 (second compound 0.1 µM) [µM] | IC50 (second compound 0.316 µM) [µM] | IC50 (second compound 1 µM) [µM] | IC50 (second compound 3.16 µM) [µM] | IC50 (second compound 10 µM) [µM] | viability, T/C [1] [%] | viability, T/C [2] [%] | viability, T/C [3] [%] | viability, T/C [4] [%] | viability, T/C [5] [%] | viability, T/C [6] [%] | viability, T/C [7] [%] | viability, T/C [8] [%] | viability, T/C [9] [%] | viability, T/C [10] [%] | viability, T/C [11] [%] | viability, T/C [12] [%] | viability, T/C [13] [%] | viability, T/C [14] [%] | viability, T/C [15] [%] | also measured
NS(=O)(=O)OCC1CC(n2ccc3c(NC4CCc5ccccc54)ncnc32)CC1O (stereo not given) + NC1CCC(NC2CC2c2ccccc2)CC1 | > 3 | > 3 | > 3 | > 3 | > 3 | 149 | 125 | 77.5 | 84.7 | 79.6 | 74.8 | 162 | 131 | 87.7 | 73.6 | 77.5 | 77.8 | 164 | 115 | 82.4 | viability, T/C [16]: 66.5%; viability, T/C [17]: 80.7%; viability, T/C [18]: 75.5%; viability, T/C [19]: 132%; viability, T/C [20]: 113%; viability, T/C [21]: 93.8%; viability, T/C [22]: 75.2%; viability, T/C [23]: 69.8%; viability, T/C [24]: 70.1%; viability, T/C [25]: 163%; viability, T/C [26]: 124%; viability, T/C [27]: 86.5%; viability, T/C [28]: 73.9%; viability, T/C [29]: 73.9%; viability, T/C [30]: 70.2%
Nc1ccccc1NC(=O)c1ccc(CNC(=O)OCc2cccnc2)cc1 + NC1CCC(NC2CC2c2ccccc2)CC1 | 0.158 | 0.15 | 0.153 | 0.152 | 0.147 | 89.1 | 78.6 | 64.7 | 33.4 | 10.5 | 5.83 | 93.6 | 69.4 | 68 | 31.2 | 8.46 | 5.39 | 101 | 73.5 | 67.8 | viability, T/C [16]: 35.9%; viability, T/C [17]: 7.27%; viability, T/C [18]: 8.95%; viability, T/C [19]: 95.5%; viability, T/C [20]: 85.1%; viability, T/C [21]: 62.3%; viability, T/C [22]: 32.9%; viability, T/C [23]: 10.5%; viability, T/C [24]: 4.3%; viability, T/C [25]: 95.8%; viability, T/C [26]: 92.6%; viability, T/C [27]: 61.6%; viability, T/C [28]: 29.2%; viability, T/C [29]: 11.2%; viability, T/C [30]: 7.03%
O=C(C=Cc1cccc(S(=O)(=O)Nc2ccccc2)c1)NO + NC1CCC(NC2CC2c2ccccc2)CC1 | 0.167 | 0.122 | 0.0885 | 0.606 | 0.0847 | 72.1 | 72.1 | 57.9 | 22.7 | 6.87 | 96 | 88.8 | 69.8 | 61.9 | 18.5 | 7.13 | 97.9 | 78.8 | 68.8 | 52.4 | viability, T/C [16]: 19.1%; viability, T/C [17]: 8.74%; viability, T/C [18]: 102%; viability, T/C [19]: 88.6%; viability, T/C [20]: 72.9%; viability, T/C [21]: 56.1%; viability, T/C [22]: 26.4%; viability, T/C [23]: 6.99%; viability, T/C [24]: 108%; viability, T/C [25]: 85.3%; viability, T/C [26]: 75.7%; viability, T/C [27]: 48.8%; viability, T/C [28]: 22.1%; viability, T/C [29]: 7.93%; viability, T/C [30]: 98.2%
